The supplement of paper PMC12463676, “Small-molecule dissolution of stress granules by redox modulation benefits ALS models” (Nature Chemical Biology, 2025)

What follows are targets tested with NC(=O)CCCCC1CCSS1 [lipoamide] (assay: thermal stability z-score vs DMSO; higher = more thermally stabilized by treatment). Conditions: HeLa; lipoamide concentration 100 µM; arsenate co-treatment: none.
Experimental: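 Cellular thermal proteome profiling in HeLa cells. Cells were treated with 100 µM lipoamide for 1 h, with or without 1 mM arsenate for a further 1 h, then heated to ten temperatures (37-66.3 °C), and soluble protein was quantified by TMT mass spectrometry relative to 0.1% DMSO controls. The thermal stability score (sum of log2 fold changes minus the abundance score) was transformed to a z-score; mean of n = 3 experiments.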
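Further: each temperature applied for 3 min, abundance score taken as mean log2 fold change at the two lowest temperatures, z-score obtained by mean subtraction and division by SD.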

UniProt Q8IUC4, sequence (Q8IUC4 whole entry): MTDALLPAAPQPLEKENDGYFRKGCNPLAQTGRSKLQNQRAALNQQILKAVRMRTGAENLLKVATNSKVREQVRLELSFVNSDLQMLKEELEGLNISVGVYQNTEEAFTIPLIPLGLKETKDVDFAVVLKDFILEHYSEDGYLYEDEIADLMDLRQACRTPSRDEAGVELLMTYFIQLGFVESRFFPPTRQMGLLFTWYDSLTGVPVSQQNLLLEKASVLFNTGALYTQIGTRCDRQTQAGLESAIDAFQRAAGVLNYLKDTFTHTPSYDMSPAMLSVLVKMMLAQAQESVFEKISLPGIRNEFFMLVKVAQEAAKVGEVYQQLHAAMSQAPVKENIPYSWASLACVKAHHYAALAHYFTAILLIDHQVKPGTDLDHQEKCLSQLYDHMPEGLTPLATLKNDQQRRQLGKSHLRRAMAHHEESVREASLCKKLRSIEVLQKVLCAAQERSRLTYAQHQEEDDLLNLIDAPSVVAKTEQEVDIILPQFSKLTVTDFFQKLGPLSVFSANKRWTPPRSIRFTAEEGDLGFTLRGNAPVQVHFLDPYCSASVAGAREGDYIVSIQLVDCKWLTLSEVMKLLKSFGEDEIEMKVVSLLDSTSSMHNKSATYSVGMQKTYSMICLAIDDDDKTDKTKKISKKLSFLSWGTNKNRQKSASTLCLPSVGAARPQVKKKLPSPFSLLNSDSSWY
UniProt Q8TEB1, sequence (Q8TEB1 whole entry): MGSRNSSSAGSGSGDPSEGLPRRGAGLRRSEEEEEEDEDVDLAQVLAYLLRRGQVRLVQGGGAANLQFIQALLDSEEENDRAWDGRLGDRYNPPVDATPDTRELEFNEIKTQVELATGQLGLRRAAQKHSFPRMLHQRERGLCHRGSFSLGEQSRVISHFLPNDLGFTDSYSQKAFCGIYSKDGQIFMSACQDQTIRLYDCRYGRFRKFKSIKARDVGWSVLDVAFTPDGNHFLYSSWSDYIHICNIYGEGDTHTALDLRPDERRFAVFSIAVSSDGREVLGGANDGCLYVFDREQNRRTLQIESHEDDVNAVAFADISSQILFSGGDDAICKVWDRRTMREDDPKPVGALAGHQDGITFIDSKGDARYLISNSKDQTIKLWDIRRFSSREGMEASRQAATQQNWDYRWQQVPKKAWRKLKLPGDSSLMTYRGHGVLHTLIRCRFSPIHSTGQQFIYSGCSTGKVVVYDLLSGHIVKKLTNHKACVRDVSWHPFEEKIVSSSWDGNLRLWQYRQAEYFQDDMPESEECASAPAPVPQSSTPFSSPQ
UniProt Q9BZ29, sequence (Q9BZ29 whole entry): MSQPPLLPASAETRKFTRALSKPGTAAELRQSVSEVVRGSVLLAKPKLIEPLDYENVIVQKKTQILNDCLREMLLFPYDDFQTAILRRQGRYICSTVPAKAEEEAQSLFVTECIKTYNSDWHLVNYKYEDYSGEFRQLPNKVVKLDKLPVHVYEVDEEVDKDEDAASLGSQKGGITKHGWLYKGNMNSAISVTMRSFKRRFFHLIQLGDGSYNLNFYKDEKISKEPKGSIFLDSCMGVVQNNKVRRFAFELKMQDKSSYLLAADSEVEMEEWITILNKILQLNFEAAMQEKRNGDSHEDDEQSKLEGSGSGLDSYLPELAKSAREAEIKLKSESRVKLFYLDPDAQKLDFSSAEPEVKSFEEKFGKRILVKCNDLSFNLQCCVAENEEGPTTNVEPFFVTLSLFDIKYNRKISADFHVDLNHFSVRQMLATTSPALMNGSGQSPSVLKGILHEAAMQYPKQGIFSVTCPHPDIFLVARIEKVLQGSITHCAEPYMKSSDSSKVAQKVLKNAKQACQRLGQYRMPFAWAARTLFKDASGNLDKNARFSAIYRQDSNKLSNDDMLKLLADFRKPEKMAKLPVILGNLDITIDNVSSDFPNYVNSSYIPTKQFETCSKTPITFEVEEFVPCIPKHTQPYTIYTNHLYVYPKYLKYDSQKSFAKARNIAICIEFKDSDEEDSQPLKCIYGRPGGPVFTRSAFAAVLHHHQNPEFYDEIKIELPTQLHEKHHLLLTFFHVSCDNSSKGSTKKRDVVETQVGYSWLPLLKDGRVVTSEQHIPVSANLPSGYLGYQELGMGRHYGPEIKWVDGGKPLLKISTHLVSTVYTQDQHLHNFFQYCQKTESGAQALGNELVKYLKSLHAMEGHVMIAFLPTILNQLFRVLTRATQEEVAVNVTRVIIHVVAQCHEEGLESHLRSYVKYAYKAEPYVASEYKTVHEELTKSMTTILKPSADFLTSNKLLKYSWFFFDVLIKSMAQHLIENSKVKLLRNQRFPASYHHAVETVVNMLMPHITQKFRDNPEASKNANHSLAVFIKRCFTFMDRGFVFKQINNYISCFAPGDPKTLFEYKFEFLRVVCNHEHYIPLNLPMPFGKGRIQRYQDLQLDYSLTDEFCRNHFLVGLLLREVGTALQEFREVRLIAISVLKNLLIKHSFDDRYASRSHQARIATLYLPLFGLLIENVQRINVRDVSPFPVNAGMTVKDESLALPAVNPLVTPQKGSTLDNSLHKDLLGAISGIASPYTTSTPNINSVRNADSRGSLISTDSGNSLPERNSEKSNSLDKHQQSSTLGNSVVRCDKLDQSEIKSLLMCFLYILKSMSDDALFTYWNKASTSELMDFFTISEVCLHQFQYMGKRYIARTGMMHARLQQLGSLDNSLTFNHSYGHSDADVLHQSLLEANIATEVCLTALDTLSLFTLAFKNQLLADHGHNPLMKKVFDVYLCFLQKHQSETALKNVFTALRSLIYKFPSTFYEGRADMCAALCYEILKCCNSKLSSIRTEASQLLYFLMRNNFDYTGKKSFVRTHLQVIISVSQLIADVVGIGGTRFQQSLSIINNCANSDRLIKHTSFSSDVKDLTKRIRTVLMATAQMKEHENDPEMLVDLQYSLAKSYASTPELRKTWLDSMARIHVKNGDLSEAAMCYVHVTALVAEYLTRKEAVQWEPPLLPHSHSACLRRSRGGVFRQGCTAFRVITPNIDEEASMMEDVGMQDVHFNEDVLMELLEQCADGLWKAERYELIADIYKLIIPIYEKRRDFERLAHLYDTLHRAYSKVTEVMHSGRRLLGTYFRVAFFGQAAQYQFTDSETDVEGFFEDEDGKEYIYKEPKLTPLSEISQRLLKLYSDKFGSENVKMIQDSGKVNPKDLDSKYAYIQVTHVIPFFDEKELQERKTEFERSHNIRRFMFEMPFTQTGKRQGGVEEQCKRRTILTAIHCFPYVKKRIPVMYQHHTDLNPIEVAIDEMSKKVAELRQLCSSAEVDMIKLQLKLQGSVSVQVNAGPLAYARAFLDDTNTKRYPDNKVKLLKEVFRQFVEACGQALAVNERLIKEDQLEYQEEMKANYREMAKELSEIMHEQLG
UniProt Q92979, sequence (Q92979 whole entry, looked up): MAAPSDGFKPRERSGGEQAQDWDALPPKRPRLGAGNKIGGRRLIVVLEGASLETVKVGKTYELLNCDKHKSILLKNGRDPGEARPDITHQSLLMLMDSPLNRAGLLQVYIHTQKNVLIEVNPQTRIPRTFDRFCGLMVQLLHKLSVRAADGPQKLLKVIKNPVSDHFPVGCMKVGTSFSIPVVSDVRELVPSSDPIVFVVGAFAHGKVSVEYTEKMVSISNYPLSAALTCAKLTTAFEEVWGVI

Going from PHACTR2 (UniProt O75167) to VWA5A (UniProt O00534), the thermal stability z-score rises from -0.408 to 0.147.

Compared with FRMD8 (UniProt Q9BZ67), DCAF11 (UniProt Q8TEB1) is higher in thermal stability z-score: 0.131 for the first, 0.343 for the second.

Compared with AAAS (UniProt Q9NRG9), PRKACA (UniProt P17612) is higher in thermal stability z-score: -0.12 for the first, 0.151 for the second.

Compared with PMVK (UniProt Q15126), IQGAP2 (UniProt Q13576) is lower in thermal stability z-score: 0.0911 for the first, -0.159 for the second.

First: NOMO2 (UniProt Q5JPE7)
UniProt Q5JPE7, sequence (Q5JPE7 whole entry): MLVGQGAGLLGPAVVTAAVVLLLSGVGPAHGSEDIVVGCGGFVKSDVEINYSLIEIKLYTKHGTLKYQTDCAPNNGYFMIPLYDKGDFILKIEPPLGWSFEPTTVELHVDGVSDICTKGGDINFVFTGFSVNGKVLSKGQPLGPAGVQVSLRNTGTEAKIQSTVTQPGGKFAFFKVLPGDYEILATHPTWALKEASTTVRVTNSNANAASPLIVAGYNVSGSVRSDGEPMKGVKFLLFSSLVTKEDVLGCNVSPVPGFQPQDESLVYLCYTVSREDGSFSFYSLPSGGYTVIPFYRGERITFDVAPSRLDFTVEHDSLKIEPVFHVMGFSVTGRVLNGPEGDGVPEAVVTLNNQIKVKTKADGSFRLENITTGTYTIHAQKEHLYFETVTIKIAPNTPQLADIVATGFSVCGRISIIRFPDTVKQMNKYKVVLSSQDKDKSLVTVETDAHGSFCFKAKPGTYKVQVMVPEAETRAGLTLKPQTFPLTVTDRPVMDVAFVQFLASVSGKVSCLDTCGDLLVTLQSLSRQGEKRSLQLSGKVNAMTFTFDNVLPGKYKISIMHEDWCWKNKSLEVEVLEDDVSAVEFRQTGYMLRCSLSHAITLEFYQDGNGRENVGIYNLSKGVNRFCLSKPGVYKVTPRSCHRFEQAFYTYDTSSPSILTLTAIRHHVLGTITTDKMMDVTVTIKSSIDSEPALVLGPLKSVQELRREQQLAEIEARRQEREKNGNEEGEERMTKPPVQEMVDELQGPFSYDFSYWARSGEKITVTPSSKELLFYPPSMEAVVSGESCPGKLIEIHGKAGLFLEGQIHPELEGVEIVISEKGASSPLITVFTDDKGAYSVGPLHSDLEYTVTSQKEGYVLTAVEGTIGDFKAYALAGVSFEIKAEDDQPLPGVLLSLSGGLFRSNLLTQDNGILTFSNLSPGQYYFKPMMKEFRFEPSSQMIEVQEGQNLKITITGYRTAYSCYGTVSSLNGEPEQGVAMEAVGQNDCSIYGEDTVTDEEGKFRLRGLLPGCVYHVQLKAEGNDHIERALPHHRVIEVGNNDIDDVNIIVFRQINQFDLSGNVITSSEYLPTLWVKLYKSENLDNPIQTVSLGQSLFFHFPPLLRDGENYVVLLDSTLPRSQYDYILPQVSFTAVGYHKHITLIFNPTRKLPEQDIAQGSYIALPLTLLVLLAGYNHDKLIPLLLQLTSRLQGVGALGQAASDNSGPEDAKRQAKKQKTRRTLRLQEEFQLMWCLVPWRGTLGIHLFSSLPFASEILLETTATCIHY
Second: CAP1 (UniProt Q01518)
The thermal stability z-score of the first is lower: -3.99 for the first, 0.502 for the second.

Compared with COMMD2 (UniProt Q86X83), EIF5B (UniProt O60841) is lower in thermal stability z-score: -0.169 for the first, -0.31 for the second.

Going from CDK1 (UniProt P06493) to WARS2 (UniProt Q9UGM6), the thermal stability z-score falls from -0.0348 to -0.143.

Going from APMAP (UniProt Q9HDC9) to RHPN2 (UniProt Q8IUC4), the thermal stability z-score falls from 0.655 to -1.32.

Compared with RAB35 (UniProt Q15286), SLC25A4 (UniProt P12235) is higher in thermal stability z-score: 0.0595 for the first, 0.0728 for the second.

First: EIF4H (UniProt Q15056)
Second: MARS2 (UniProt Q96GW9)
The thermal stability z-score of the first is lower: 0.714 for the first, 0.957 for the second.

Going from EXOSC10 (UniProt Q01780) to APLP2 (UniProt Q06481), the thermal stability z-score falls from -0.0314 to -1.76.

Going from DCTD (UniProt P32321) to ACTR5 (UniProt Q9H9F9), the thermal stability z-score rises from -0.504 to -0.0633.

First: CHCHD3 (UniProt Q9NX63)
Second: CTU1 (UniProt Q7Z7A3)
The thermal stability z-score of the first is higher: 0.581 for the first, -0.0524 for the second.

First: MICA (UniProt Q29983)
Second: PHB (UniProt P35232)
UniProt P35232, sequence (P35232 whole entry): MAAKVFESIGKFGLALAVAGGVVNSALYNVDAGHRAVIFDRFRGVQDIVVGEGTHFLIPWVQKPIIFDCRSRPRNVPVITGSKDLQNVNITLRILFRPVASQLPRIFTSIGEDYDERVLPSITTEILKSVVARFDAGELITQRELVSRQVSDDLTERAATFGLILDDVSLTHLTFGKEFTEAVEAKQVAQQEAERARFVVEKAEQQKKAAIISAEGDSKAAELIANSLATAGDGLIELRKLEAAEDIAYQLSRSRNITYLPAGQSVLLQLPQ
The thermal stability z-score of the first is lower: -3.33 for the first, 0.55 for the second.

First: CFAP20 (UniProt Q9Y6A4)
Second: CERS2 (UniProt Q96G23)
The thermal stability z-score of the first is higher: -0.433 for the first, -1.12 for the second.

First: CLIC3 (UniProt O95833)
Second: MAP3K2 (UniProt Q9Y2U5)
The thermal stability z-score of the first is higher: 0.0631 for the first, -0.461 for the second.

Compared with DOCK9 (UniProt Q9BZ29), ANKRD44 (UniProt Q8N8A2) is lower in thermal stability z-score: -0.0295 for the first, -0.323 for the second.

Compared with EMG1 (UniProt Q92979), RPL23A (UniProt P62750) is higher in thermal stability z-score: -0.428 for the first, -0.341 for the second.

Each target was assayed with O=[As]([O-])(O)O.[K+] [potassium arsenate] in the same assay as above. Conditions: HeLa; arsenate concentration 1 mM.
Experimental: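 Cellular thermal proteome profiling in HeLa cells treated with 1 mM arsenate for 1 h (DMSO pretreatment), heated to ten temperatures (37-66.3 °C). Soluble protein was quantified by TMT mass spectrometry relative to DMSO controls; the thermal stability score was transformed to a z-score; mean of n = 3 experiments.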

Going from AAK1 (UniProt Q2M2I8) to TIMM13 (UniProt Q9Y5L4), the thermal stability z-score falls from 0.0056 to -0.381.

Going from PRKRIP1 (UniProt Q9H875) to NCOR1 (UniProt O75376), the thermal stability z-score falls from 0.247 to -0.0899.

First: KCTD15 (UniProt Q96SI1)
Second: XPO4 (UniProt Q9C0E2)
The thermal stability z-score of the first is lower: -0.89 for the first, -0.27 for the second.

Going from GMDS (UniProt O60547) to ODC1 (UniProt P11926), the thermal stability z-score rises from -0.189 to 0.106.

First: SSR4 (UniProt P51571)
Second: LIG1 (UniProt P18858)
The thermal stability z-score of the first is lower: -0.649 for the first, 0.24 for the second.

Compared with ZC3H4 (UniProt Q9UPT8), POLR2D (UniProt O15514) is higher in thermal stability z-score: -1.7 for the first, -0.735 for the second.

Going from RASA3 (UniProt Q14644) to TCEAL1 (UniProt Q15170), the thermal stability z-score rises from 0.0995 to 0.192.

First: ATG16L1 (UniProt Q676U5)
Second: PUM3 (UniProt Q15397)
The thermal stability z-score of the first is lower: -0.533 for the first, 0.369 for the second.

Compared with PACSIN2 (UniProt Q9UNF0), PDIA4 (UniProt P13667) is higher in thermal stability z-score: 0.638 for the first, 0.648 for the second.

Compared with C21ORF59 (UniProt P57076), CARNMT1 (UniProt Q8N4J0) is higher in thermal stability z-score: 0.112 for the first, 0.59 for the second.

Going from EIF4A1 (UniProt P60842) to OSBP (UniProt P22059), the thermal stability z-score falls from 0.0167 to -1.62.

First: ABHD16A (UniProt O95870)
Second: PSMA6 (UniProt P60900)
The thermal stability z-score of the first is higher: 1.11 for the first, 0.345 for the second.

First: HMGCS1 (UniProt Q01581)
Second: ETNK1 (UniProt Q9HBU6)
The thermal stability z-score of the first is lower: 0.164 for the first, 0.244 for the second.

First: SNRNP70 (UniProt P08621)
Second: ALG8 (UniProt Q9BVK2)
The thermal stability z-score of the first is lower: -0.58 for the first, 0.491 for the second.

Going from CASP8 (UniProt Q14790) to CPSF2 (UniProt Q9P2I0), the thermal stability z-score rises from -0.648 to -0.339.

Compared with ZSWIM8 (UniProt A7E2V4), SDF4 (UniProt Q9BRK5) is higher in thermal stability z-score: -0.0789 for the first, 0.389 for the second.

First: TSPAN6 (UniProt O43657)
Second: CDC20 (UniProt Q12834)
The thermal stability z-score of the first is higher: 0.466 for the first, -1.51 for the second.

First: PSMC2 (UniProt P35998)
Second: PHACTR2 (UniProt O75167)
The thermal stability z-score of the first is higher: -0.134 for the first, -0.387 for the second.

First: VWA5A (UniProt O00534)
Second: FRMD8 (UniProt Q9BZ67)
The thermal stability z-score of the first is lower: -0.235 for the first, -0.172 for the second.

Compared with DCAF11 (UniProt Q8TEB1), AAAS (UniProt Q9NRG9) is higher in thermal stability z-score: -0.996 for the first, 0.108 for the second.

Compared with PRKACA (UniProt P17612), PMVK (UniProt Q15126) is lower in thermal stability z-score: 0.535 for the first, 0.0469 for the second.

Compared with IQGAP2 (UniProt Q13576), NOMO2 (UniProt Q5JPE7) is higher in thermal stability z-score: -0.209 for the first, 0.407 for the second.

Compared with CAP1 (UniProt Q01518), COMMD2 (UniProt Q86X83) is higher in thermal stability z-score: -0.0608 for the first, -0.00764 for the second.

First: EIF5B (UniProt O60841)
Second: CDK1 (UniProt P06493)
The thermal stability z-score of the first is higher: 1.42 for the first, 0.246 for the second.

First: WARS2 (UniProt Q9UGM6)
Second: APMAP (UniProt Q9HDC9)
The thermal stability z-score of the first is lower: -0.284 for the first, 0.179 for the second.

Compared with RHPN2 (UniProt Q8IUC4), RAB35 (UniProt Q15286) is lower in thermal stability z-score: 0.193 for the first, -0.435 for the second.

Going from SLC25A4 (UniProt P12235) to EIF4H (UniProt Q15056), the thermal stability z-score rises from 0.373 to 0.688.

Compared with MARS2 (UniProt Q96GW9), EXOSC10 (UniProt Q01780) is lower in thermal stability z-score: 0.992 for the first, -0.437 for the second.

First: APLP2 (UniProt Q06481)
Second: DCTD (UniProt P32321)
The thermal stability z-score of the first is higher: -0.251 for the first, -0.736 for the second.

Going from ACTR5 (UniProt Q9H9F9) to CHCHD3 (UniProt Q9NX63), the thermal stability z-score rises from -0.0841 to 0.417.

First: CTU1 (UniProt Q7Z7A3)
Second: MICA (UniProt Q29983)
The thermal stability z-score of the first is higher: -0.16 for the first, -0.775 for the second.

Going from PHB (UniProt P35232) to CFAP20 (UniProt Q9Y6A4), the thermal stability z-score rises from 0.222 to 1.07.

Compared with CERS2 (UniProt Q96G23), CLIC3 (UniProt O95833) is higher in thermal stability z-score: -0.575 for the first, -0.0618 for the second.

Compared with MAP3K2 (UniProt Q9Y2U5), DOCK9 (UniProt Q9BZ29) is higher in thermal stability z-score: -0.71 for the first, -0.457 for the second.

Going from ANKRD44 (UniProt Q8N8A2) to EMG1 (UniProt Q92979), the thermal stability z-score falls from -0.0202 to -0.383.

In the case of RPL23A (UniProt P62750), the thermal stability z-score is reported as -1.49.
